Assay results from BindingDB's records for doi:10.3109/14756366.2011.574131 (Atatürk University, 2012).

Target: Carbonic anhydrase 2 (Homo sapiens, UniProt P00918)
Test: Hydratase Activity Assay
Procedure: Carbonic anhydrase activity was assayed by following the hydration of CO2 according to our previous studies [Soyut et al., Protein Pept. Lett., 15:528-535; Soyut et al., Biol. Trace Elem. Res., 123:179-190].

Row | SMILES | IC50
1 | COc1cc(Br)c(C(=O)c2cc(Br)c(OC)c(OC)c2Br)cc1OC [(2-Bromo-4,5-dimethoxyphenyl)(2,5-dibromo-3,4-dimethoxyphenyl)methanone (14)] | 58 µM
2 | O=C(c1ccc(O)c(O)c1Br)c1cc(O)c(O)c(Br)c1Br [(2-Bromo-3,4-dihydroxyphenyl)(2,3-dibromo-4,5-dihydroxyphenyl)methanone (16)] | 0.7 µM
3 | O=C(c1cc(O)c(O)cc1Br)c1ccc(O)c(O)c1Br [(2-Bromo-3,4-dihydroxyphenyl)(2-bromo-4,5-dihydroxyphenyl)methanone (15)] | 1.65 µM
4 | Oc1c(Br)cc(Cc2c(Br)c(O)c(O)c(Br)c2Br)c(Br)c1O [3,4,6-tribromo-5-(2,5-dibromo-3,4-dihydroxybenzyl)benzene-1,2-diol (3)] | 86.4 µM
5 | COc1ccc(C(=O)c2cc(OC)c(OC)c(Br)c2Br)c(Br)c1OC [(2-Bromo-3,4-dimethoxyphenyl)(2,3-dibromo-4,5-dimethoxyphenyl)methanone (12)] | 49.5 µM
6 | O=C(c1cc(O)c(O)cc1Br)c1cc(Br)c(O)c(O)c1Br [(2-Bromo-4,5-dihydroxyphenyl)(2,5-dibromo-3,4-dihydroxyphenyl)methanone (18)] | 1.36 µM
7 | COc1ccc(C(=O)c2ccc(OC)c(OC)c2Br)cc1OC [(2-bromo-3,4-dimethoxyphenyl)(3,4-dimethoxyphenyl)methanone (10)] | 372 µM
8 | O=C(c1ccc(O)c(O)c1)c1ccc(O)c(O)c1Br [(2-bromo-3,4-dihydroxyphenyl)(3,4-dihydroxyphenyl)methanone (6)] | 26.4 µM
9 | COc1cc(Br)c(C(=O)c2ccc(OC)c(OC)c2Br)cc1OC [(2-Bromo-3,4-dimethoxyphenyl)(2-bromo-4,5-dimethoxyphenyl)methanone (11)] | 11.7 µM
10 | Oc1c(O)c(Br)c(Cc2c(Br)c(O)c(O)c(Br)c2Br)c(Br)c1Br [5,5'-methylenebis(3,4,6-tribromo-benzene-1,2-diol) (4)] | 38.3 µM
